Results taken from ChEMBL document CHEMBL3886340, “2-substituted-3-phenylpropionic acid derivatives and their use in the treatment of inflammatory bowel disease” (2015).

Columns and labels:
[1] = molecular target: T1, Peroxisome proliferator-activated receptor gamma (Homo sapiens, UniProt P37231); assay: (§1) Reporter Gene Assay: Transactivation Assay Expression vectors were prepared by inserting the ligand binding domain cDNA (complementary DNA) of human PPARalpha (amino acid 168-468) and human PPARgamma (amino acid 205-505), 3′ to and in frame with, the yeast GAL4 transcription factor DNA binding domain and the nuclear localization signal from the T-antigen of Polyoma Virus into the mammalian expression vector pSGS (Stratagene). The resulting expression vectors pSGGAL-PPARalpha and pSGGAL-PPARgamma were used in co-transfection experiments together with a modified pGL3 promoter plasmid (Promega) containing five copies of the UAS GAL4 recognition site. 2.5 μg pSGGAL-PPARalpha or pSGGAL-PPARgamma were mixed with 25 μg pGL3p […] and 22.5 μg pBluescript (Stratagene) in 0.95 mL ice cold PBS containing between 9-12 million U-2 OS (human osteosarcoma) cells. The cell/DNA mixture was incubated on ice for 5 minutes and then divided between two 0.4 cm cuvettes and electroporated at 960 μF, 2
T1 sequence (P37231 whole entry): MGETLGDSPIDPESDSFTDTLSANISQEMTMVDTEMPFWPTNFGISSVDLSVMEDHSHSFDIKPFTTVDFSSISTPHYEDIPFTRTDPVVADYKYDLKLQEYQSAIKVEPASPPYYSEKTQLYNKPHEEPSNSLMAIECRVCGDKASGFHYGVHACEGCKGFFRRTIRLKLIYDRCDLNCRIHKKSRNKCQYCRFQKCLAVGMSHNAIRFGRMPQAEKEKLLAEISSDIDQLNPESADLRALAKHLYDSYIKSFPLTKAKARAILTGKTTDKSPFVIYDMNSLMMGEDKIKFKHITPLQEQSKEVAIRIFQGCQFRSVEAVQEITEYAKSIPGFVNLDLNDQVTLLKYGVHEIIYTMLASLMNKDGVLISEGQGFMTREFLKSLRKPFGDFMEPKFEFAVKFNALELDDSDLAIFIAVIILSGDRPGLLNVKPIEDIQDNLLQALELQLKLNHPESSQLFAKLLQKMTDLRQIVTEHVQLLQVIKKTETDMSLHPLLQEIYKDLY

[2] = molecular target: T2, Peroxisome proliferator-activated receptor alpha (Homo sapiens, UniProt Q07869); assay: as §1
T2 sequence (Q07869 whole entry): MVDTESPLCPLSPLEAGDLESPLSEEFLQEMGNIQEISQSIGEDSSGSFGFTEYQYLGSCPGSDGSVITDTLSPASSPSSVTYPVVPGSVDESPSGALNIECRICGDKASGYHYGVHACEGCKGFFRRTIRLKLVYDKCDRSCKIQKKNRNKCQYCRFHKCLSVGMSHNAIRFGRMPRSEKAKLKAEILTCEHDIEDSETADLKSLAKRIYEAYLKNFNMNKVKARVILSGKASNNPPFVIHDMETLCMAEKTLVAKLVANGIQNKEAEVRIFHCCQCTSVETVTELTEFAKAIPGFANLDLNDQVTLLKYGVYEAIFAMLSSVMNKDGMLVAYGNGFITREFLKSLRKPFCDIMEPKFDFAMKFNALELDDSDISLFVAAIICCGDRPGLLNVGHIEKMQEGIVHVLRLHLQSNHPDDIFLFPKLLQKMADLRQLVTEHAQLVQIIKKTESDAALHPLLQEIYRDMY

## CS(=O)(=O)Oc1ccc(C(=O)OCc2ccc(CC(SCCc3ccc(F)cc3)C(=O)O)cc2)cc1 (stereo unspecified)
[1]
  EC50: 1800 nM
[2]
  EC50: 240 nM

## O=C(Cc1ccccn1)OCc1ccc(CC(SCCc2ccc(F)cc2)C(=O)O)cc1 (stereo unspecified)
[1]
  EC50: 2100 nM
[2]
  EC50: 1500 nM

## CS(=O)(=O)Oc1ccc(CC(=O)OCc2ccc(CC(SCCc3ccc(F)cc3)C(=O)O)cc2)cc1 (stereo unspecified)
[1]
  EC50: 1700 nM
[2]
  EC50: 240 nM
